Data set [1] can be described thus: Solvent screening (solubility of compound A). The class given is physicochemical. The note with it: for solubility: thermodynamic from solid, Sonication. The procedure: 10-20 mg of 3″-tert-butyl-4′-(2-hydroxyethoxy)-4″-pyrrolidin-1-yl[1,1′;3′,1″]-terphenyl-4-carboxylic acid (hereinafter “compound A”) was placed into a 30 ml vial. 200 μl of the selected solvent was added and the vial was stirred by magnetic stirring. • If the compound A was not dissolved, the vial was placed into ultrasonic bath with mild heating. • If the compound A was still not dissolved, further 200 μl of the solvent was added to the vial and the magnetic stirring and ultrasonication were repeated.
The whole procedure (addition of the solvent, stirring, ultrasonication, heating) was repeated stepwise until every compound A particles was dissolved and a clear, translucent liquid was obtained.

Data set [2] can be described thus: Redispersibility in water. The note with it: addition of water at room temperature. The class given is physicochemical.

≈ marks a conversion by molar mass, not a printed value.

By solubility is commonly meant the dissolved amount per volume that the medium holds.

On to `CC(C)(C)c1cc(-c2cc(-c3ccc(C(=O)O)cc3)ccc2OCCO)ccc1N1CCCC1` [Compound A, 3″-tert-butyl-4′-(2-hydroxyethoxy)-4″-pyrrolidin-1-yl[1,1′;3′,1″]-terphenyl-4-carboxylic acid], for which the “solubility profile (in words)” value is given as “slightly soluble” in data set [1] (acetone); “very slightly soluble” in data set [1] (acetonitrile); “slightly soluble” in data set [1] (ethanol); “slightly soluble” in data set [1] (isopropanol); “slightly soluble” in data set [1] (methanol); “soluble” in data set [1] (pyridine). Further, the “solubility profile (in words)” value in data set [1] (tetrahydrofuran) is “soluble”; in data set [1] (water) it was “practically insoluble”. Besides, the solubility amounted to 3000 µg/mL (≈ 6.53 mM) in data set [1] (organic solvent or mixture, Acetone, RT); 400 µg/mL (≈ 0.87 mM) in data set [1] (organic solvent or mixture, Acetonitrile, RT); 4900 µg/mL (≈ 10.7 mM) in data set [1] (organic solvent or mixture, Ethanol, RT); 3000 µg/mL (≈ 6.53 mM) in data set [1] (organic solvent or mixture, Isopropanol, RT); 1700 µg/mL (≈ 3.7 mM) in data set [1] (organic solvent or mixture, Methanol, RT); 34500 µg/mL (≈ 75.1 mM) in data set [1] (organic solvent or mixture, Pyridine, RT). The solubility in data set [1] (organic solvent or mixture, Tetrahydrofuran, RT) is 30500 µg/mL (≈ 66.4 mM); in data set [1] (Water, T = 45° C.), less than 50 µg/mL. Also, in data set [2], the Redispersibility result was “not wetted by water”.

The record behind these values is patent US10925855B2, “Compositions comprising water dispersible nanoparticles of a retinoid compound” (GALDERMA RESEARCH & DEVELOPMENT, priority 2015, dated 2021).
